# Earlier results as cited in US6733485B1, “Microstimulator-based electrochemotherapy methods and systems” (Advanced Bionics Corporation, priority 2001, dated 2004).
# Where a name gives a salt, the structure may show the parent alone. Read-outs that look alike come from different tables or passages of the source.
# How the values were obtained:
# [1] = system: rat and human glioma cells
# [2] = system: malignant melanoma skin metastases
# [3] = system: tumors in mice
# [4] = system: metastatic lesion of oral fibrosarcoma
# [5] = system: multicellular prostate tumor spheroids; details: DC electrical field 500 V/m for 90 seconds
# [6] = in vitro, administered along with electrical stimulation
# [7] = system: permeation nodules of head and neck squamous cell carcinomas
# [8] = system: HNSCC permeation nodules, salivary cancer, and breast cancer; details: electrochemotherapy
# [9] = system: human T98G glioma cells
# [10] = system: cutaneous and subcutaneous tumors
# [11] = system: subcutaneous metastasis of hypernephroma; details: three sessions over four weeks, electric pulses 10 minutes after intravenous injection
# [12] = system: subcutaneously established colorectal tumor
compound,measurement,setting,value
N.N.O=C([O-])C1(C(=O)[O-])CCC1.[Pt+2] [carboplatin],enhancement of cytotoxicity by electric stimulation,[1]; carboplatin: high dose,only slightly enhanced
N.N.[Cl][Pt][Cl] [cisplatin],median time to progression,[2]; chemotherapy-treated nodules (cisplatin alone),four
same,tumor nodules responded,"[2]; cisplatin alone, 18 nodules",22%
same,tumor nodules responded,"[2]; electrochemotherapy, four weeks after treatment, 27 nodules",48%
same,median time to progression,[2]; electrochemotherapy-treated nodules,21 weeks
same,"platinum bound to DNA, electrochemotherapy versus cisplatin treated tumors",[3]; all time points tested,Approximately two
same,tumor growth delay,"[3]; cisplatin treatment without electric pulses, intratumoral 1-8 mg/kg",up to 20 days
same,tumor cures (local tumor control plateau),"[3]; electrochemotherapy, 4 mg/kg, eight pulses 100 μsec, 1 Hz, 1040 V",67%
O=P1(N(CCCl)CCCl)NCCCO1 (centres unmarked) [cyclophosphamide],effect on tumor growth,[4]; cyclophosphamide injection alone,no significant suppressive effect
same,tumor size,"[4]; intraperitoneal injection followed by local electric pulses, several days after treatment",markedly reduced in size
COc1cccc2c1C(=O)c1c(O)c3c(c(O)c1C2=O)C[C@@](O)(C(=O)CO)C[C@@H]3O[C@H]1C[C@H](N)[C@H](O)[C@H](C)O1 [doxorubicin],uptake of doxorubicin,[5],did increase their uptake of doxorubicin
COc1cc([C@@H]2c3cc4c(cc3[C@@H](O[C@@H]3O[C@@H]5CO[C@@H](C)O[C@H]5[C@H](O)[C@H]3O)[C@H]3COC(=O)[C@H]23)OCO4)cc(OC)c1O [etoposide],enhancement of cytotoxicity by electric stimulation,[1],no electrochemotherapy enhancement
Cc1ncc(CNC(=O)N(CCCl)N=O)c(N)n1 [nimustine hydrochloride],enhancement of cytotoxicity by electric stimulation,[1]; carboplatin: high dose,no electrochemotherapy enhancement
CC[C@]1(O)C[C@H]2CN(CCc3c([nH]c4ccccc34)[C@@](C(=O)OC)(c3cc4c(cc3OC)N(C=O)[C@H]3[C@@](O)(C(=O)OC)[C@H](OC(C)=O)[C@]5(CC)C=CCN6CC[C@]43[C@@H]65)C2)C1 [vincristine],enhancement of cytotoxicity by electric stimulation,[1],no electrochemotherapy enhancement
bleomycin,factor by which the dose of bleomycin can be reduced,[6],100-5000
same,side effects,"[7]; 10 mg/m^2 intravenous bolus plus electric pulses, eight patients",Neither local nor general side effects were observed
same,nodules with clinical complete response,"[7]; 10 mg/m^2 intravenous bolus, then 4 or 8 cycles of 100 μsec pulses at 1300 V/cm, 40 nodules, within a few days",57%
same,effectiveness after intraarterial or intranodular injection,[8],effective
same,antitumor effects,[8]; seven patients,Clear antitumor effects were obtained
same,increase of toxicity of bleomycin by electric stimulation,"[9]; 8 cycles, 1 Hz square wave, 100 μsecond, 1000 V/cm",more than 1000 fold
same,increase of toxicity at reduced bleomycin concentration,[9]; bleomycin concentration 100 pg/ml,This increase disappeared
same,complete responses in nodules,"[10]; bleomycin only, no electric pulses",No complete responses
same,patients responding to the treatment,"[10]; bleomycin plus 6-8 pulses, 1300 V/cm, 34 patients",All patients responded
same,nodules with complete responses,[10]; bleomycin plus electric pulses,91%
same,side effects,[10]; bleomycin plus electric pulses,no significant side effects were noted
same,metastatic nodules or primary tumors with responses,"[10]; bleomycin plus electric pulses, within 12 weeks",142 of 143
same,time for which tumor volume was stabilized,[11],12 months
same,tumor development,"[12]; intratumoral, intravenous or intraperitoneal, 1/50 to 1/2 of LD50, 500 to 2,000 V/cm",Significant suppression of tumor development and even some cures
same,cures on repeated electrochemotherapy,"[12]; lowest dose of bleomycin and lowest electric field intensity, repeated",complete cures of colorectal cancer were achieved in all animals
